Experimental data as given in patent US20140235601A1, “Use of Aromatase Inhibitor Or Estrogen Blocker For Increasing Spermatogenesis Or Testosterone Levels In Males” (priority 2011, published 2014).

Experiments:
Format in all cases: in vivo, human
[1] = system: married person with small very atrophic testicles; test: Clinical Example A: person with history of undescended testicles, impotence and infertility treated with Arimidex; settings: ⅛ mg (0.125 mg) daily
From the text: A married person with a history of undescended testicles that were surgically corrected […]. This person presented to the inventor with small very atrophic testicles, impotence (difficulty in erecting, only occasionally able to have successful intercourse only with PDE5 inhibitors) and an inability to conceive despite two years of unprotected sexual intercourse with their spouse.
All of this is a result of the improved testicular function that this relatively low dose of Arimidex provided for this patient.

[2] = system: person with extremely small and atrophic testicles; test: Clinical Example B: person with low libido, erectile dysfunction and ejaculatory failure treated with Femara; settings: ⅛ to ½ of a 2.5 mg tablet
Experimental: A […] athletic and muscular […] complaining of low libido, erectile dysfunction and ejaculatory failure. Patient was needing to use Viagra in order to function sexually, and had no desire for sex. Sex hormones testosterone and estrogen were measured at prepubertal levels.

[3] = system: person with testicular atrophy following pelvic radiation; test: Clinical Example C: person with testicular decline after pelvic radiation for prostate cancer treated with Letrazole; settings: 1/40th of a 2.5 mg tablet daily
From the text: A sexually active person with biopsy confirmed prostate cancer elects to treat their cancer with pelvic radiation. Following radiation there is a progressive decline in testosterone levels, combined with testicular atrophy and increasing erectile dysfunction.

| SMILES | erectile function [1] | fertility (ability to conceive) [1] | sperm counts [1] | testicular function [1] | testosterone levels [1] | ejaculations during intercourse [2] | erections [2] | sex drive [2] | testicular function [2] | testosterone levels [2] | testicular function [3] | testosterone levels [3] |
| --- | --- | --- | --- | --- | --- | --- | --- | --- | --- | --- | --- | --- |
| CC(C)(C#N)c1cc(Cn2cncn2)cc(C(C)(C)C#N)c1 [Arimidex, Anastrozole] | dramatic improvement | able to conceive and have a child | dramatic increase | improved | significant increase |  |  |  |  |  |  |  |
| N#Cc1ccc(C(c2ccc(C#N)cc2)n2cncn2)cc1 [Femara, Letrozole] |  |  |  |  |  | restoration | improved | restoration | dramatic increase | restored to the high supraphysiologic levels | significant improvement | dramatic rise |
